Experimental data from patent US20240316000A1, “METHODS OF TREATMENT” (DIFFUSION PHARMACEUTICALS LLC, priority 2021, published 2024).

Columns and labels:
[1] = tested on: healthy volunteers exercising at altitude; experiment: Crossover study in healthy volunteers exercising at simulated altitude of 15,000 feet (arterial blood gas, VO2 max, SpO2, lactate); format: in vivo, human
Excerpt: This is a double-blind, randomized, placebo-controlled crossover study designed to investigate TSC's effects on oxygen enhancement using an experimental model to induce hypoxia in study participants. The primary endpoints measured in this study are maximal oxygen consumption and partial pressure of arterial blood oxygen in normal healthy volunteers subjected to incremental levels of physical exertion while exposed to hypoxic and hypobaric conditions at a simulated altitude of 15,000 feet above sea level. The secondary endpoints are to assess the effect of TSC on SpO2 and lactate.
A total of 30 healthy volunteers are enrolled in the trial with each subject serving as their own control by completing the experiment twice in a random, blinded order in the same day with a 3-hour rest and wash out period between experimental intervals. During one ascent, study subjects receive intravenous (IV) placebo administration and the other ascent the same subject receives a single IV dose of TSC at one of three dose levels (0.5 mg/kg, 1.5 mg/kg, or 2.5 mg/kg).
Primary analyses will be based on sequence matched changes in median PaO2 and median VO2 following a single administration of TSC versus placebo in subjects exposed to simulated altitude and undergoing exercise. This is a crossover design, repeated measures study where each subject will serve as their own control. Each subject will be randomized to a TSC dose and will also be randomized to their altitude exposure sequence on the day of testing.

[2] = Absorption after intramuscular injection of TSC with gamma cyclodextrin; format: in vivo; conditions: injected intramuscularly with gamma cyclodextrin; rats
[3] = Solubility of TSC in water with gamma-cyclodextrin; format: physicochemical
hemorrhagic shock = conditions: after hemorrhagic shock in rats; cited from earlier work
healthy volunteers = experiment: Safety assessment in the tcpO2 study (adverse events, vital signs); format: in vivo, human
Experimental: Vital signs during the treatment and evaluation period are assessed at 10, 30, and 60 minutes post-study drug dosing. Adverse events are assessed throughout.

[4] = 2.5 mg/kg, end of exercise and 10 minutes post-exercise
[5] = change last exercise to 10-minutes post-exercise, 2.5 mg/kg vs other TSC doses and placebo
[6] = last exercise value minus baseline, 2.5 mg/kg vs other TSC doses and placebo
[7] = last exercise value, 2.5 mg/kg vs other TSC doses and placebo

For `CC(/C=C/C=C(\C)C(=O)[O-])=C\C=C\C=C(C)\C=C\C=C(/C)C(=O)O.[Na+]` [TSC, trans sodium crocetinate], which “Post-exercise recovery (pH, lactate, SpO2 and other markers)” value ([1]; 2.5 mg/kg, 10 minutes post-exercise versus last exercise measurements) is on record?
Its value is “positive effect on post-exercise recovery”.

And the “Blood pH following exercise under hypoxic conditions” value [1, 4]?
The value was “increase in pH”.

What about the “Lactate following exercise under hypoxic conditions” value [1, 4] of the same compound?
Its value is “decrease in lactate”.

And the “Effects on pH at the end of the exercise period versus baseline, compared to placebo” value ([1]; 2.5 mg/kg, p<0.1)?
Its value is “significantly different”.

What about the “Intra-day maximal oxygen consumption tests” value ([1]; 0.5, 1.5, 2.5 mg/kg IV) of the same compound?
The value was “no observed changes”.

What about the “Partial pressure of arterial blood oxygen” value ([1]; 0.5, 1.5, 2.5 mg/kg IV) of the same compound?
Its value is “no observed changes”.

What about the “pH, least square mean” value ([1]; 10-minute post-exercise change from baseline (smallest reduction), 2.5 mg/kg vs other TSC doses and placebo, p=0.01 vs placebo) of the same compound?
Its value is “highest least square mean value”.

And the “HCO3, least square mean” value ([1]; 10-minute post-exercise change from baseline, 2.5 mg/kg vs other TSC doses and placebo)?
Its value is “highest least square mean value”.

What about the “Lactic acid, least square mean” value ([1]; 10-minute post-exercise change from baseline, 2.5 mg/kg vs other TSC doses and placebo, p<0.05 vs 0.5 mg/kg) of the same compound?
Its value is “lowest least square mean value”.

What about the “Oxygen saturation, least square mean” value ([1]; 10-minute post-exercise change from baseline, 2.5 mg/kg vs other TSC doses and placebo, p<0.05 vs 0.5 mg/kg, p=0.01 vs placebo) of the same compound?
The value was “highest least square mean value”.

What about the “PAO2, least square mean” value ([1]; 10-minute post-exercise change from baseline, 2.5 mg/kg vs other TSC doses and placebo, separates statistically from 0.5 mg/kg) of the same compound?
The value was “highest least square mean value”.

What about the “pH, change” value ([1]; change last exercise to 10-minutes post-exercise, 2.5 mg/kg) of the same compound?
The value was “smallest change”.

And the “Lactic acid, least square mean” value ([1]; change last exercise to 10-minutes post-exercise, 2.5 mg/kg and 1.5 mg/kg vs other TSC doses and placebo)?
Its value is “lowest least square mean value”.

What about the “HCO3, least square mean” value [1, 5] of the same compound?
The value was “highest least square mean value”.

And the “Oxygen saturation, least square mean” value [1, 5]?
Its value is “highest least square mean value”.

And the “PACO2, least square mean” value [1, 5]?
Its value is “highest least square mean value”.

And the “PAO2, least square mean” value [1, 5]?
The value was “highest least square mean value”.

What about the “PAO2, least square mean” value ([1]; last exercise value minus baseline, 0.5 mg/kg TSC dose and placebo vs other TSC doses) of the same compound?
The value was “lowest least square mean value”.

And the “HCO3, least square mean” value [1, 6]?
The value was “highest least square mean value”.

And the “Oxygen saturation, least square mean” value [1, 6]?
Its value is “lowest least square mean value”.

What about the “VO2 maximum, least square mean” value [1, 6] of the same compound?
The value was “lowest least square mean value”.

What about the “pH, least square mean” value ([1]; last exercise value minus baseline, 2.5 mg/kg vs other TSC doses and placebo, separates statistically from 0.5 mg/kg) of the same compound?
The value was “highest least square mean value”.

What about the “Lactic acid, least square mean” value ([1]; last exercise value minus baseline, 2.5 mg/kg vs other TSC doses and placebo, trend lower with dose) of the same compound?
Its value is “lowest least square mean value”.

And the “PACO2, least square mean” value [1, 7]?
Its value is “highest least square mean value”.

And the “pH, least square mean” value [1, 7]?
Its value is “highest least square mean value”.

And the “Lactic acid, least square mean” value ([1]; last exercise value, 2.5 mg/kg vs other TSC doses and placebo, p<0.1 vs 0.5 mg/kg, trend lower with dose)?
The value was “lowest least square mean value”.

And the “Oxygen saturation, least square mean” value ([1]; last exercise value, 2.5 mg/kg vs other TSC doses and placebo, p<0.1 vs 1.5 mg/kg)?
The value was “lowest least square mean value”.

And the “HCO3, least square mean” value ([1]; last exercise value, 2.5 mg/kg vs other TSC doses and placebo, separates statistically from 0.5 mg/kg)?
Its value is “highest least square mean value”.

And the “PAO2, least square mean” value ([1]; last exercise value, 2.5 mg/kg vs other TSC doses and placebo, separates statistically from 1.5 mg/kg)?
The value was “lowest least square mean value”.

And the “Sequence effect in subjects who received TSC in the first ascent of the day” value ([1]; pH change from baseline, p<0.05 placebo first vs second)?
The value was “carry-over”.

And the “Oxygen saturation, least square mean” value ([1]; post-exercise value, 2.5 mg/kg vs other TSC doses and placebo)?
Its value is “highest least square mean value”.

What about the “PACO2, least square mean” value ([1]; post-exercise value, 2.5 mg/kg vs other TSC doses and placebo, p<0.05 vs 0.5 mg/kg) of the same compound?
Its value is “highest least square mean value”.

And the “Lactic acid, least square mean” value ([1]; post-exercise value, 2.5 mg/kg vs other TSC doses and placebo, p<0.05 vs 0.5 mg/kg, p=0.01 vs placebo)?
Its value is “lowest least square mean value”.

And the “pH, least square mean” value ([1]; post-exercise value, 2.5 mg/kg vs other TSC doses and placebo, separates from 0.5 mg/kg, p=0.01 vs placebo)?
The value was “highest least square mean value”.

And the “HCO3, least square mean” value ([1]; post-exercise value, 2.5 mg/kg vs other TSC doses and placebo, separates statistically from 0.5 mg/kg)?
Its value is “highest least square mean value”.

What about the “Absorption into the blood stream” value [2] of the same compound?
The value was “Absorption is quick”.

What about the “TSC content of aqueous solutions” value ([3]; TSC and gamma-cyclodextrin) of the same compound?
The value was ≤ 44 milligrams of TSC per ml of solution.

What about the “TSC content of solutions” value ([3]; formulated with a cyclodextrin and mannitol) of the same compound?
The value was “over 20 mg TSC/ml of solution”.

What about the Whole-body oxygen consumption (hemorrhagic shock) of the same compound?
The Whole-body oxygen consumption was “increase whole-body oxygen consumption”.

What about the “Serious adverse events or withdrawals” value (healthy volunteers; 30 subjects) of the same compound?
Its value is “No subjects experience a serious adverse event”.

And the “Number of treatment-emergent adverse events determined to be drug-related” value (healthy volunteers; of nine events, all mild in intensity)?
The value was “five”.

And the “Subjects with treatment-emergent adverse events” value (healthy volunteers; seven of the 30 subjects (TSC and placebo cohorts), nine events overall)?
The value was 23.3%.

What about the Safety and tolerability (healthy volunteers; single IV bolus 0.5-2.5 mg/kg) of the same compound?
The Safety and tolerability was “safe and well tolerated”.

What about the “Serious adverse events or dose-limiting toxicities” value (healthy volunteers; up to and including the 2.5 mg/kg iv dose) of the same compound?
Its value is “no serious adverse events or dose-limiting toxicities”.
